Source: ChEMBL document CHEMBL2158001, “Lead optimization studies towards the discovery of novel carbamates as potent AChE inhibitors for the potential treatment of Alzheimer's disease” (Bioorg Med Chem, 2012)

Each molecule was assayed against T1, Acetylcholinesterase (Mus musculus, UniProt P21836).
T1 sequence (P21836 whole entry): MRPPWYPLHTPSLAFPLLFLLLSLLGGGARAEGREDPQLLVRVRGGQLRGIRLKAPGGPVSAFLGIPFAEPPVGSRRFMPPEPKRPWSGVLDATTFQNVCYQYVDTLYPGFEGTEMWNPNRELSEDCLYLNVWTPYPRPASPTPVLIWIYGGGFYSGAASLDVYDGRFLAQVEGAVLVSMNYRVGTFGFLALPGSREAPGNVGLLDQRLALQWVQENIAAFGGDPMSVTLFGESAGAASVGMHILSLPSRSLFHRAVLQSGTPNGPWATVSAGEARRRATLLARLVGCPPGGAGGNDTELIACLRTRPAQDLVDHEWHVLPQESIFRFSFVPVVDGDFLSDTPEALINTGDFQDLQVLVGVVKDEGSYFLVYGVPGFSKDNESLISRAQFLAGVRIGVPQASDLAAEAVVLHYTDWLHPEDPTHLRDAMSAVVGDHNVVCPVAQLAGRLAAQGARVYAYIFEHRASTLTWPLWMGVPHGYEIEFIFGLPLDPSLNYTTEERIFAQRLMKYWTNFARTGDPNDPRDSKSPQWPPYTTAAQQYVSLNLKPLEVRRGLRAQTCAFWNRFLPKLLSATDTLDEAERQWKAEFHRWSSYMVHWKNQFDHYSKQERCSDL
Description: Inhibition of Swiss albino mouse RBC AChE after 30 mins by Ellman method

Going from `O=C(Nc1ccc(Cl)cc1)Oc1ccc2c(c1)CCCN2Cc1ccc(Cl)cc1Cl` to `O=C(Nc1ccc(F)cc1)Oc1ccc2c(c1)CCCN2Cc1ccc(Cl)cc1Cl`, the IC50 falls from 3480 µM to 89.4 µM (39-fold).

Going from `Cc1ccccc1NC(=O)Oc1ccc2c(c1)CCCN2Cc1ccc(Cl)cc1Cl` to `O=C(Nc1ccccc1Cl)Oc1ccc2c(c1)CCCN2Cc1ccc(Cl)cc1Cl`, the IC50 rises from 2.57 µM to 11.9 µM (4.6-fold). The first is the more potent here.

First: CCCCCCCNC(=O)Oc1ccc2c(c1)CCCN2Cc1ccc(Cl)cc1Cl
Second: CCCCCCCCNC(=O)Oc1ccc2c(c1)CCCN2Cc1ccc(Cl)cc1Cl
The IC50 of the first is lower: 105 µM for the first, greater than 10000 µM for the second. The first is the more potent here.

Compared with `Cc1ccc(NC(=O)Oc2ccc3c(c2)CCCN3Cc2ccc(Cl)cc2Cl)cc1`, `Cc1cccc(NC(=O)Oc2ccc3c(c2)CCCN3Cc2ccc(Cl)cc2Cl)c1` is 1200-fold lower in IC50: 851 µM for the first, 0.7 µM for the second. The second is the more potent here.

First: O=C(Nc1cccc(Br)c1)Oc1ccc2c(c1)CCCN2Cc1ccc(Cl)cc1Cl
Second: O=C(Nc1cccc(Cl)c1)Oc1ccc2c(c1)CCCN2Cc1ccc(Cl)cc1Cl
The IC50 of the first is 1.5-fold lower: 140 µM for the first, 211 µM for the second.

First: O=C(Nc1ccccc1F)Oc1ccc2c(c1)CCCN2Cc1ccc(Cl)cc1Cl
Second: COc1ccccc1NC(=O)Oc1ccc2c(c1)CCCN2Cc1ccc(Cl)cc1Cl
The IC50 of the first is 5.4-fold lower: 2.56 µM for the first, 13.8 µM for the second.

Going from `Cc1cccc(NC(=O)Oc2ccc3c(c2)CCCN3Cc2ccccc2)c1` to `Cc1ccccc1NC(=O)Oc1ccc2c(c1)CCCN2Cc1ccccc1`, the IC50 falls from 60.2 µM to 14.3 µM (4.2-fold).

`CCCCCCNC(=O)Oc1ccc2c(c1)CCCN2Cc1ccc(Cl)cc1Cl` gave an IC50 of 14.1 µM.
